According to US8329904B2, “Azacyclic derivatives” (Hoffmann-La Roche Inc., priority 2009, dated 2012):

biological target: T1, human HSL (Homo sapiens, UniProt Q05469); test: Human Hormone-Sensitive Lipase (HSL) Enzyme Inhibition Assay; type: biochemical; conditions: colorimetric assay, 2,3-dimercapto-1-propanol tributyrate (DMPT) substrate, 37° C. for 20 minutes, absorbance at 405 nm; read-out: HSL hum IC50
T1 construct: overlapping PCR to generate a full length human HSL ORF with a 3′-His6 tag; His6 (C); made in house; host or cells: High 5 insect cells (baculovirus, pFast-BAC)
T1 sequence (Q05469 1-1076): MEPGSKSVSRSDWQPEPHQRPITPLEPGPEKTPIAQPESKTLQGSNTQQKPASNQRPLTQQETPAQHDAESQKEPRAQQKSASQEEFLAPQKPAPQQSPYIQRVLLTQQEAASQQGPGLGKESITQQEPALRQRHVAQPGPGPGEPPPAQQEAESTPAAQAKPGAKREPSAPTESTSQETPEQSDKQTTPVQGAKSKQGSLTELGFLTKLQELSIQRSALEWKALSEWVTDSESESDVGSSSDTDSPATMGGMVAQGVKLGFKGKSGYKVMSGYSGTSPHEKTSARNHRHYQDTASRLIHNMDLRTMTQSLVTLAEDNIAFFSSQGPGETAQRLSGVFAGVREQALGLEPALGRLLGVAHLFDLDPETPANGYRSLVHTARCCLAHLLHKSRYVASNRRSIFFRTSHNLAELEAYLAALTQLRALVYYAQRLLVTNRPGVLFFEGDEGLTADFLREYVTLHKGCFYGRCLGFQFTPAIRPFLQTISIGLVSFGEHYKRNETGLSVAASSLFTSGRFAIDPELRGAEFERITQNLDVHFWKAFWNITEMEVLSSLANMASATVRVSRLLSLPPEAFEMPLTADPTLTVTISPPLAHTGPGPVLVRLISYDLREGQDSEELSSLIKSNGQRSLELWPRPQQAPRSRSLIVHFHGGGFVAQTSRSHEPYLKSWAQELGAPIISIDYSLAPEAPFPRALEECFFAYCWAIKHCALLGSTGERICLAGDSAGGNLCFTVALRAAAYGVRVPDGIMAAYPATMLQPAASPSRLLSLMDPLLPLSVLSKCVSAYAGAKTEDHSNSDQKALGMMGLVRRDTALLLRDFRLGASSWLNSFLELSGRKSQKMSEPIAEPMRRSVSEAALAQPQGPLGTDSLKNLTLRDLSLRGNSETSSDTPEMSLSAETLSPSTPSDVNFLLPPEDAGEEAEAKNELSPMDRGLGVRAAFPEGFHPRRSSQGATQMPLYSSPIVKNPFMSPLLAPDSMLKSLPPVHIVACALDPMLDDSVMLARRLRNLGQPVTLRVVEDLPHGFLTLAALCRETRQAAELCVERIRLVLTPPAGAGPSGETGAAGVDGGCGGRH
Procedure: Production of Human Full Length Hormone Sensitive Lipase-His^6
1) Cloning: cDNA was prepared from commercial human brain polyA-+ RNA and used as a template in overlapping PCR to generate a full length human HSL ORF with a 3′-His6 tag. This full length insert was cloned into the pFast-BAC vector and the DNA-sequence of several single clones was verified. DNA from a correct full length clone with the 3′His6 tag was used to transform the E. coli strain DH10BAC. Resulting bacmid DNA was used to generate a titered baculovirus stock for protein generation.
Cells were thawed. […] was done at 3×30 sec., Lubrol PX was added to 0.2% final concentration followed by stirring for 15 min. at 4° C. and centrifugation at 25 k×g, 60 min., 4° C. […] Supernatant was removed, the resin washed in the centrifuge vessel using 5 volumes of Base Buffer containing 0.2% Lubrol PX. Centrifugation was done again, then the supernatant discarded. The resin wass poured onto a 0.8 μm membrane in a disposable filter unit (Nalge 450-0080), and washed with 5 volumes of Base Buffer containing 0.2% Lubrol PX. It was then washed with 30 volumes of Base Buffer containing 60 mM imidazole pH 7.5 at 4° C. The protein was eluated with 5 volumes of 25 mM Tris-Cl, 300 mM NaCl, 200 mM imidazole, 10 mM 2-mercaptoethanol, pH 7.5 at 4° C. by tumbling resin with buffer end-over-end, 30 min., 4° C. The resin was captured on a 0.2 μm membrane disposable filter unit (Millipore SCGP U02 RE) and the eluate collected in the reservoir. The eluate was concentrated using a 30 k MWCO centrifugal filter device (Sartorius Vivascience Vivacell 100, VC1022), to 20 ml. It was then dialyzed overnight at 4° C., two times against 2 L of 10% glycerol, 25 mM Tris-Cl, 300 mM NaCl, 0.2 mM EDTA, 0.2 mM DTT, pH 7.5 at 4° C. The protein was filtered using a 0.22 μm disposable filter unit (Millipore SCGP00525). The protein concentration was calculated from absorbance at 280 nm, using 280=0.67 cm-1 mg-1. […] The protein was stored at −80° C.
Human Hormone-Sensitive Lipase (HSL) Enzyme Inhibition Assay:
HSL enzyme activity was measured by a colorimetric assay using 2,3-dimercapto-1-propanol tributyrate (Aldrich, St. Louis, Mo.) as a substrate. Typically, 1.5 mM 2,3-dimercapto-1-propanol tributyrate (DMPT) in 100 mM MOPS, pH 7.2, 0.2 mg/ml fatty acid-free BSA was prepared by sonication at 4° C. to homogenous suspension. Test compounds (2 mM stock in DMSO) were diluted 3 fold in series in DMSO. Compound solutions were diluted 24 fold in 1.5 mM DMPT containing solution and 18 ul per well was added to 384-well microplates (Corning Costar). Twelve microliters per well of human HSL (15 ug/ml) was added and the reaction mixture was incubated at 37° C. for 20 minutes. Six microliters of 12 mM dithio-bis-(2-nitrobenzoic acid) (DTNB) in DMSO plus 1.2% SDS and 0.6% Triton X-100 were added and the mixture was incubated at room temperature for 15 minutes. Product production was monitored by reading absorbance at 405 nm on an Envision Reader (PerkinElmer Life and Analytical Sciences, Shelton, Conn.).

First: CC(Oc1ccc(N2CCC3(CCN(S(=O)(=O)c4ccccc4)CC3)C2=O)cc1)C(F)(F)F (racemic) [Example 4, (rac)-8-Benzenesulfonyl-2-[4-(2,2,2-trifluoro-1-methyl-ethoxy)-phenyl]-2,8-diaza-piro[4.5]decan-1-one]
Second: O=C1N(c2ccc(OC(F)(F)F)cc2)CCC12CCN(S(=O)(=O)c1ccccc1)CC2 [Example 2, 8-Benzenesulfonyl-2-(4-trifluoromethoxy-phenyl)-2,8-diaza-spiro[4.5]decan-1-one]
The IC50 of the first is 2-fold lower: 20 nM for the first, 40 nM for the second.

Compared with `CC(Oc1ccc(N2CCC3(CCN(S(=O)(=O)CC(C)(C)C)CC3)C2=O)cc1)C(F)(F)F` (racemic) [Example 22, (rac)-8-(2,2-Dimethyl-propane-1-sulfonyl)-2-[4-(2,2,2-trifluoro-1-methyl-ethoxy)-phenyl]-2,8-diaza-spiro[4.5]decan-1-one], `CC(C)CS(=O)(=O)N1CCC2(CCN(c3ccc(OC(F)(F)F)cc3)C2=O)CC1` [Example 18, 8-(2-Methyl-propane-1-sulfonyl)-2-(4-trifluoromethoxy-phenyl)-2,8-diaza-spiro[4.5]decan-1-one] is 1.6-fold lower in IC50: 130 nM for the first, 80 nM for the second.

`CC(Oc1ccc(N2CCC3(CCN(S(=O)(=O)c4ccccc4)CC3)C2=O)cn1)C(F)(F)F` (racemic) [Example 25, (rac)-8-Benzenesulfonyl-2-[6-(2,2,2-trifluoro-1-methyl-ethoxy)-pyridin-3-yl]-2,8-diaza-spiro[4.5]decan-1-one] and `CC(Oc1ccc(N2CCC3(CCN(S(=O)(=O)c4ccccc4Cl)CC3)C2=O)cn1)C(F)(F)F` (racemic) [Example 114, 8-(2-Chloro-benzenesulfonyl)-2-[6-(2,2,2-trifluoro-1-methyl-ethoxy)-pyridin-3-yl]-2,8-diaza-spiro[4.5]decan-1-one (rac)] are the same in IC50: 50 nM for the first, 50 nM for the second.

Going from `Cc1noc(C)c1S(=O)(=O)N1CCC2(CCN(c3ccc(C(O)C(F)(F)F)cc3)C2=O)CC1` (racemic) [Example 162, (rac)-8-(3,5-Dimethyl-isoxazole-4-sulfonyl)-2-[4-(2,2,2-trifluoro-1-hydroxy-ethyl)-phenyl]-2,8-diaza-spiro[4.5]decan-1-one] to `O=C1N(c2ccc(C(O)C(F)F)cc2)CCC12CCN(S(=O)(=O)c1ccccc1C(F)(F)F)CC2` (racemic) [Example 176, (rac)-2-(4-(2,2-difluoro-1-hydroxyethyl)phenyl)-8-(2-(trifluoromethyl)phenylsulfonyl)-2,8-diazaspiro[4.5]decan-1-one], the IC50 falls from 120 nM to 40 nM (3-fold).

`O=C1N(c2ccc(OC(F)(F)F)cc2)CCC12CCN(S(=O)(=O)c1ccccc1Cl)CC2` [Example 1, 8-(2-Chloro-benzenesulfonyl)-2-(4-trifluoromethoxy-phenyl)-2,8-diaza-spiro[4.5]decan-1-one] and `CCc1ccc(N2CCC3(CCN(S(=O)(=O)c4ccccc4Cl)CC3)C2=O)cc1` [Example 17, 8-(2-Chloro-benzenesulfonyl)-2-(4-ethyl-phenyl)-2,8-diaza-spiro[4.5]decan-1-one] are the same in IC50: 30 nM for the first, 30 nM for the second.

`CC(C)(C)c1ccc(N2CCC3(CCN(S(=O)(=O)c4ccccc4)CC3)C2=O)cc1` [Example 3, 8-Benzenesulfonyl-2-(4-tert-butyl-phenyl)-2,8-diaza-spiro[4.5]decan-1-one] and `CC(C)Oc1ccc(N2CCC3(CCN(S(=O)(=O)c4ccccc4)CC3)C2=O)cc1` [Example 6, 8-Benzenesulfonyl-2-(4-isopropoxy-phenyl)-2,8-diaza-spiro[4.5]decan-1-one] are within 1.5-fold of each other in IC50: 30 nM for the first, 40 nM for the second.

`CC(C)(Oc1ccc(N2CCC3(CCN(S(=O)(=O)c4ccccc4)CC3)C2=O)cc1)C(F)(F)F` [Example 5, 8-Benzenesulfonyl-2-[4-(2,2,2-trifluoro-1,1-dimethyl-ethoxy)-phenyl]-2,8-diaza-spiro[4.5]decan-1-one] and `O=C1N(c2ccc(OC(F)(F)F)cc2)CCCC12CCN(S(=O)(=O)c1ccccc1)CC2` [Example 9, 9-Benzenesulfonyl-2-(4-trifluoromethoxy-phenyl)-2,9-diaza-spiro[5.5]undecan-1-one] are within 1.5-fold of each other in IC50: 40 nM for the first, 50 nM for the second.

Compared with `CC(C)(C)CC(=O)N1CCC2(CC1)CCN(c1ccc(OC(F)(F)F)cc1)C2=O` [Example 7, 8-(3,3-Dimethyl-butyryl)-2-(4-trifluoromethoxy-phenyl)-2,8-diaza-spiro[4.5]decan-1-one], `CC(C)(C)CCC(=O)N1CCC2(CC1)CCN(c1ccc(OC(F)(F)F)cc1)C2=O` [Example 14, 8-(4,4-Dimethyl-pentanoyl)-2-(4-trifluoromethoxy-phenyl)-2,8-diaza-spiro[4.5]decan-1-one] is 2.8-fold higher in IC50: 60 nM for the first, 170 nM for the second. The first is the more potent here.

First: O=C1N(c2ccc(OC(F)(F)F)cc2)CCC12CCN(S(=O)(=O)N1CCOCC1)CC2 [Example 8, 8-(Morpholine-4-sulfonyl)-2-(4-trifluoromethoxy-phenyl)-2,8-diaza-spiro[4.5]decan-1-one]
Second: CC(C)Oc1ccc(N2CCC3(CCN(S(=O)(=O)N4CCOCC4)CC3)C2=O)cc1 [Example 15, 2-(4-Isopropoxy-phenyl)-8-(morpholine-4-sulfonyl)-2,8-diaza-spiro[4.5]decan-1-one]
The IC50 of the first is 4-fold lower: 90 nM for the first, 360 nM for the second. The first is the more potent here.

First: CC(C)c1ccc(N2CCC3(CCN(S(=O)(=O)c4ccccc4)CC3)C2=O)cn1 [Example 10, 8-Benzenesulfonyl-2-(6-isopropyl-pyridin-3-yl)-2,8-diaza-spiro[4.5]decan-1-one]
Second: O=C1N(c2ccc(Cl)nc2)CCC12CCN(S(=O)(=O)c1ccccc1)CC2 [Example 11, 8-Benzenesulfonyl-2-(6-chloro-pyridin-3-yl)-2,8-diaza-spiro[4.5]decan-1-one]
The IC50 of the first is 13-fold lower: 130 nM for the first, 1700 nM for the second. The first is the more potent here.

Compared with `O=C1N(c2cccnc2)CCC12CCN(S(=O)(=O)c1ccccc1)CC2` [Example 12, 8-Benzenesulfonyl-2-pyridin-3-yl-2,8-diaza-spiro[4.5]decan-1-one], `COc1ccc(N2CCC3(CCN(S(=O)(=O)c4ccccc4)CC3)C2=O)nn1` [Example 16, 8-Benzenesulfonyl-2-(6-methoxy-pyridazin-3-yl)-2,8-diaza-spiro[4.5]decan-1-one] is 1.7-fold lower in IC50: 26000 nM for the first, 15000 nM for the second. The second is the more potent here.

In the case of `O=C(CCC1CC1)N1CCC2(CC1)CCN(c1ccc(OC(F)(F)F)cc1)C2=O` [Example 13, 8-(3-Cyclopropyl-propionyl)-2-(4-trifluoromethoxy-phenyl)-2,8-diaza-spiro[4.5]decan-1-one], the IC50 is reported as 150 nM.
